Experimental data: patent publication US20210346359A1, “Use of CFTR Modulators For Treating Cerebrovascular Conditions” (Qanatpharma AG, priority 2018, published 2021)
“Also recorded” adds a separate entry of the source.

Experiments:
[1] = tested on: mice with subarachnoid hemorrhage; assay: Cleaved caspase-3 and Fluoro-Jade staining of cortical cells in subarachnoid hemorrhage mice; format: in vivo, mouse; settings: 2 days post-SAH, 3 mg/kg daily for 2 days
Source text: The development of delayed vasoconstriction and brain injury is more rapid in the experimental mouse SAH model (2-5 days post-SAH) (12,19-21), compared to what is observed clinically (4-12 days post-SAH) (22,23). […] At 2 days post-SAH induction, animals were anesthetized with isoflurane; their brains were perfused with phosphate buffered saline (PBS) and then perfusion fixed with phosphate-buffered paraformaldehyde (4%; pH 7.4), both via the ascending aorta. Brains were immediately dissected and cut into coronal sections 1 mm posterior to the bregma. These brain sections were post-fixed in 4% paraformaldehyde (pH 7.4) for 48 hours at 4° C. and then incubated in 10% sucrose (3 hours), followed by 30% sucrose overnight (at 4° C.) for cyroprotection. The brain sections were then embedded in OCT (Sakura Finetek USA; Torrance, USA) on isopentane and dry ice. Cryostat sections (5 μm thick coronal slices) were collected on “Tissue Path Superfrost Plus Gold” slides (Fisher Scientific; Whitby, Canada) and stored at −80° C. until used.
All samples were pre-treated with 10-minute proteinase (20 μg/ml; Promega; Madison, USA), followed by a standard 60-minute blocking procedure with either 10% normal donkey serum (Jackson immunoResearch Laboratories; West Grove, USA) in PBS or 10% goat serum (Invitrogen Life Technologies; Burlington, Canada) in PBS containing 1% bovine serum albumin. Brain slices were incubated with monoclonal rabbit anti-human active cleaved caspase-3 ([…] C92-605; 1:1000 dilution; BD Biosciences Canada; Mississauga Canada) and conjugated with Alexa Fluor 488 goat anti-rabbit IgG (Invitrogen). Both antibodies were diluted in Can Get Signal® immunoreaction enhancer solution and used an incubation time of 1 hour at room temperature. Specimens were washed and mounted with CC MountÔ.
Brain slices were serially incubated with 1% NaOH/80% ethanol (5 minutes), 70% ethanol (2 minutes), distilled water (2 minutes) and 0.06% potassium permanganate (10 minutes). After washing with deionized water, brain slices were stained with 0.0004% Fluoro-jade B (Histo-Chem Inc, Jefferson, USA) in 0.1% acetic acid (15 minutes). […]
Digital immunofluorescence images were acquired using a Zeiss LSM 710 confocal laser-scanning microscope in conjunction with Zeiss ZEN 2010 software (vessel images). […] Two independent assessors counted caspase-3 and Fluoro-Jade positive cells under blinded conditions, as previously described (12). For each animal, counts were obtained from the cortical region of a single coronal brain slice 1 mm posterior to the bregma (200× magnification), which includes the left and right temporal and parietal lobes The number of positive cells counted by each assessor was averaged, yielding a mean positive cell count/animal that was then used for statistical analyses.

[2] = tested on: olfactory cerebral arteries; assay: Myogenic tone of isolated olfactory cerebral arteries after in vivo treatment; design: species or system mouse
Description: Induction of Subarachnoid Hemorrhage: A well-characterized model of experimental SAH (6) was used. Briefly, each mouse was anaesthetized (isoflurane) and its head was fixed in a stereotactic frame: a 7 mm incision was made along the midline of the anterior scalp and 0.9 mm hole drilled into the skull 4.5 mm anterior to the bregma. A spinal needle was advanced to the chiasmatic cistern: 80 μl of arterial blood was injected into the intracranial space over 10 seconds. […] Following injection, the scalp incision was closed. Buprenorphine (0.05 mg/kg; 0.5-1.0 ml volume) was administered twice/day (initiated immediately following the SAH surgical procedure). Sham-operated animals underwent an identical surgical procedure, with sterile saline injected instead of blood. Olfactory cerebral arteries were isolated at 2 days post-SAH induction.
Isolation and functional assessment of resistance arteries: Mouse olfactory (a first branch of the anterior cerebral artery) and PCAs were carefully dissected, cannulated onto micropipettes, stretched to their in vivo lengths and pressurized to 45 mmHg, as previously described (3,6); mouse skeletal muscle resistance arteries were dissected from the cremaster muscle, cannulated and pressurized to 60 mmHg. All functional experiments were conducted in 3-morpholinopropanesulfonic acid (MOPS) buffered saline at 37° C. with no perfusion. […]
Myogenic responses were elicited by step-wise 20 mmHg increases in transmural pressure from 20 mmHg to 80 mmHg (olfactory arteries) or 100 mmHg (posterior cerebral arteries and cremaster skeletal muscle resistance arteries). At each pressure step, vessel diameter (diaactive) was measured once a steady state was reached (5 min). Vessels requiring treatment (e.g., CFTR(inh)-172) were incubated with the reagent in MOPS for 30 min and myogenic responses were then assessed in the presence of that reagent. Following completion of all diaactive measurements, MOPS buffer was replaced with a Ca^2+-free version and maximal passive diameter (diamax) was recorded at each pressure step.
Myogenic tone was calculated as the percent constriction in relation to the maximal diameter at each respective transmural pressure: tone (% of diamax)=[(diamax−diaactive)/diamax]×100, where diaactive is the vessel diameter in MOPS containing Ca^2+ and diamax is the diameter in Ca^2+-free MOPS. Analyses of vasomotor responses to phenylephrine used the same calculation, only in this case, diaactive represents the vessel diameter at steady state following application of the given agent and diamax represents the maximal diameter measured under Ca^2+-free conditions.

[3] = arteries from SAH mice, in vivo 3 mg/kg daily for 2 days

Structure (SMILES) | SAH-induced increase in Fluoro-Jade positive cortical cells [1] | SAH-induced increase in cleaved caspase-3 positive cortical cells [1] | olfactory cerebral artery myogenic tone [2, 3] | olfactory cerebral artery myogenic tone ([2]; arteries from CFTR knockout mice, in vivo 3 mg/kg daily for 2 days) | olfactory cerebral artery myogenic tone ([2]; arteries from sham-operated mice, 3 mg/kg i.p. daily for 2 days, 3 mg/kg)
Cc1ccc(NC(=O)C2(c3ccc4c(c3)OC(F)(F)O4)CC2)nc1-c1cccc(C(=O)O)c1 [lumacaftor] | dramatically attenuate; also recorded: abolish | dramatically attenuate; also recorded: abolish | normalizes; also recorded: reduces | – | –
O=C(Nc1ncc(C(c2ccccc2Cl)N2CCC(O)C2)s1)C1(c2ccc3c(c2)OCO3)CC1 (centres unmarked) [C18, 1-(benzo[d][1,3]dioxol-5-yl)-N-(5-((2-chlorophenyl)(3-hydroxypyrrolidin-1-yl)methyl)thiazol-2-yl)cyclopropanecarboxamide] | dramatically attenuate; also recorded: abolish | dramatically attenuate; also recorded: abolish | normalizes; also recorded: reduces | not susceptible; also recorded: not observed | does not affect; also recorded: does not alter
